Consider four compounds from PubChem BioAssay AID2060341 (Molecular Pharmacology Branch, DTP, NCI, 2025).

In the test the test system is 327498-153-R-J2-PDC multicell spheroid viability. As to the kind of experiment: Anticancer human tumor 327498-153-R-J2-PDC patient-derived uterine carcinosarcoma cell line growth inhibition [IpAb]. The settings on record: for viability, T/C: stronger effect = lower value. The text has this:
Combinatorial screen of targeted agents with ipatasertib and abemaciclib in multi-cell type tumor spheroids
A high-throughput screen of multi-cell type tumor spheroids was designed to identify active combinations of targeted small molecules and ipatasertib or abemaciclib. Complex spheroids include a stromal component modeled by human endothelial cells (HUVEC) and fibroblasts modeled by human mesenchymal stem cells (MSCs). The concentration ranges selected for each drug and investigational agent were based upon clinically achievable concentrations if the clinical Cmax of the agent was known.
Compounds. The drugs and investigational agents: ipatasertib (NSC767898), abemaciclib(NSC768073), selumetinib (NSC741078), trametinib (758246), adavosertib (NSC754352), everolimus (NSC733504), sapanisertib (NSC764658), vemurafenib (NSC761431), venetoclax (NSC766270), copanlisib (NSC809693), apelisib (NSC765974), palbociblib (NSC758247), vemurafenib (NSC761431), dabrafenib (NSC764134), ravoxertinib (NSC781343), BMS-387032 (NSC767048), sotorasib (NSC818433), talazoparib (NSC767125) and afursertib (NSC778305), were obtained from the National Cancer Institute (NCI) Developmental Therapeutics Program Chemical Repository. The FDA-approved anticancer drug set is available from the NCI Developmental Therapeutics Program. […] The stock solutions were prepared in dimethyl sulfoxide (DMSO, Sigma-Aldrich, St. Louis, MO, cat. D2650) at 800-fold the tested concentration and stored at -70 degrees C prior to their use. All drugs and investigational agents were tested over a range starting from a high concentration at or near the clinical Cmax and decreasing in half-log increments. If the clinical Cmax for an agent had not been determined, the highest concentration tested was 10 microM.
NCI60 Cell Culture. NCI60 cell lines were obtained from the NCI Developmental Therapeutics Program Tumor Repository. For each lot of cells, the Repository performed Applied Biosystems AmpFLSTR Identifiler testing with PCR amplification to confirm consistency with the published Identifier STR profile for each cell line. Cells were kept in continuous culture for no more than 20 passages. The optimal seeding densities for each of the cell lines at each time point assessed were determined prior to performing the concentration response studies. Briefly, the NCI60 human tumor lines were grown as monolayers in RPMI 1640 medium supplemented with 10% FBS and 2 mmol/L L-glutamine.
An additional 9 lines were from the NCI60 cell line panel including MDA-MB-231 breast carcinoma, MDA-MB-468 breast carcinoma, MCF7 breast carcinoma, Hs578T breast carcinoma, MALME-3M melanoma, SK-MEL-2 melanoma, SK-OV-3 ovarian carcinoma, DU-145 prostate carcinoma, PC-3 prostate carcinoma, all cell lines along with major genetic alterations are listed on Table 2. Pooled donor human umbilical vein endothelial cells (HUVEC, Lonza, cat. CC-2519) and human mesenchymal stem cells (hMSC, Lonza, cat. PT-2501) were purchased from Lonza (Walkersville, MD).
PDMR cell lines were grown in complete medium (DC medium): Dulbecco's modified Eagle's medium (DMEM)/F12 supplemented with 5% fetal bovine serum (FBS), 2 mM L-glutamine, 100 U/mL penicillin and 100 µg/ml streptomycin, 0.4 µg/ml hydrocortisone, 10 ng/ml epidermal growth factor (EGF) recombinant human protein, 24 µg/mL adenine, and 0.1 mg/mL primocin. During culture from frozen stock vials, PDMR cells were cultured in the same medium containing 10 µM Y-27632 (see Table 3). The PDCs were cultured in complete DMEM/F12 media without 10 microM Y-27632 dihydrochloride for at least two passages prior to the screen. The pooled donor HUVEC and hMSC were cultured in endothelial cell growth medium 2 (PromoCell, Heidelberg, Germany, cat. C-22011) and mesenchymal stem cell growth medium 2 (PromoCell, cat. C-28009), respectively. For all experiments, HUVEC and hMSC were used at passages </=5.
[…]

The mark [1] stands for this setting: curve of first compound, second compound 0.1 µM.
Where [2] appears, read: curve of first compound, second compound 0.316 µM.
Setting [3] is: curve of first compound, second compound 1 µM.
Setting [4] is: second compound 0.1 µM, first compound 0.0316 µM.
[5] abbreviates: second compound 0.1 µM, first compound 0.1 µM.
The mark [6] stands for this setting: second compound 0.1 µM, first compound 0.316 µM.
[7] abbreviates: second compound 0.1 µM, first compound 1 µM.
Setting [8] is: second compound 0.1 µM, first compound 3.16 µM.
[9] abbreviates: second compound 0.1 µM, first compound 10 µM.
Setting [10] is: second compound 0.316 µM, first compound 0.0316 µM.
The mark [11] stands for this setting: second compound 0.316 µM, first compound 0.1 µM.
Where [12] appears, read: second compound 0.316 µM, first compound 0.316 µM.
Setting [13] is: second compound 0.316 µM, first compound 1 µM.
The mark [14] stands for this setting: second compound 0.316 µM, first compound 3.16 µM.
[15] abbreviates: second compound 0.316 µM, first compound 10 µM.
The mark [16] stands for this setting: second compound 1 µM, first compound 0.0316 µM.
Where [17] appears, read: second compound 1 µM, first compound 0.1 µM.
The mark [18] stands for this setting: second compound 1 µM, first compound 0.316 µM.
The mark [19] stands for this setting: second compound 1 µM, first compound 1 µM.
Setting [20] is: second compound 1 µM, first compound 3.16 µM.
Setting [21] is: second compound 1 µM, first compound 10 µM.

pIC50: −log10 of the molar value. Several values for one entry are separate records, joined by “and”; a condition that tells them apart may be missing. Equal values may be shown once.
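Note: spheroids exposed to agents for 7 days.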

Turning to `Cn1ncc(Cl)c1-c1cc(C(=O)NC(CN)Cc2cccc(F)c2)sc1Cl` (centres undefined), the viability, T/C was 98.6% and 91.8% (compound 0.0316 µM); 85.3% and 76% (compound 0.1 µM); 74.4% and 67.2% (compound 0.316 µM); 53.1% and 49% (compound 1 µM); 42.2% and 36.7% (compound 3.16 µM); 0.31% and 0.21% (compound 10 µM). The pIC50 (curve of compound) is 5.83 and 5.96.
Take `CC1(C)CCC(CN2CCN(c3ccc(C(=O)NS(=O)(=O)c4ccc(NCC5CCOCC5)c([N+](=O)[O-])c4)c(Oc4cnc5[nH]ccc5c4)c3)CC2)=C(c2ccc(Cl)cc2)C1`: the viability, T/C by setting is: (compound 0.0316 µM) 100% and 102%; (compound 0.1 µM) 104% and 105%; (compound 0.316 µM) 108% and 112%; (compound 1 µM) 102% and 108%; (compound 3.16 µM) 107% and 98.3%; (compound 10 µM) 7.23% and 3.16%. The pIC50 (curve of compound) was 5.22 and 5.25.
As for `C=CCn1c(=O)c2cnc(Nc3ccc(N4CCN(C)CC4)cc3)nc2n1-c1cccc(C(C)(C)O)n1` + CCN1CCN(Cc2ccc(Nc3ncc(F)c(-c4cc(F)c5nc(C)n(C(C)C)c5c4)n3)nc2)CC1, the pIC50 reads like this: (curve of first compound, second compound 0.01 µM) 6.50; (curve of first compound, second compound 0.0316 µM) 6.58; under setting [1], 6.65; under setting [2], 6.60; under setting [3], 6.50. Further, the viability, T/C reads like this: (second compound 0.01 µM, first compound 0.0316 µM) 94.3%; (second compound 0.01 µM, first compound 0.1 µM) 88.5%; (second compound 0.01 µM, first compound 0.316 µM) 50.6%; (second compound 0.01 µM, first compound 1 µM) 5.09%; (second compound 0.01 µM, first compound 3.16 µM) 4.75%; (second compound 0.01 µM, first compound 10 µM) 5.85%. Besides, the viability, T/C is 84.4% (second compound 0.0316 µM, first compound 0.0316 µM); 76.9% (second compound 0.0316 µM, first compound 0.1 µM); 44.9% (second compound 0.0316 µM, first compound 0.316 µM); 6.81% (second compound 0.0316 µM, first compound 1 µM); 5.01% (second compound 0.0316 µM, first compound 3.16 µM); 6.96% (second compound 0.0316 µM, first compound 10 µM). Further, the viability, T/C is 69.1% under setting [4]; 68.5% under setting [5]; 41.9% under setting [6]; 11.1% under setting [7]; 7.8% under setting [8]; 9.75% under setting [9]. In addition, the viability, T/C reads like this: under setting [10], 66.2%; under setting [11], 61.1%; under setting [12], 47.3%; under setting [13], 24%; under setting [14], 14.6%; under setting [15], 14.8%. Also, the viability, T/C reads like this: under setting [16], 60.6%; under setting [17], 58.6%; under setting [18], 50.4%; under setting [19], 31.8%; under setting [20], 20.7%; under setting [21], 14.9%.
In the case of `C=CC(=O)N1CCN(c2nc(=O)n(-c3c(C)ccnc3C(C)C)c3nc(-c4c(O)cccc4F)c(F)cc23)C(C)C1` (centres undefined) + CC(C)NCC(C(=O)N1CCN(c2ncnc3c2C(C)CC3O)CC1)c1ccc(Cl)cc1, the negative logarithm of the IC50 (pIC50) by setting is: under setting [1], 6.66; under setting [2], over 7.50; under setting [3], over 7.50; (curve of first compound, second compound 3.16 µM) over 7.50; (curve of first compound, second compound 10 µM) over 7.50. The viability, T/C was 66.7% under setting [4]; 55.7% under setting [5]; 45.3% under setting [6]; 46.4% under setting [7]; 43.8% under setting [8]; 40.8% under setting [9]. For the same compound, the viability, T/C is 46.2% under setting [10]; 36.6% under setting [11]; 36.8% under setting [12]; 30.3% under setting [13]; 30.5% under setting [14]; 29.1% under setting [15]. Besides, the viability, T/C is, setting by setting: under setting [16], 37.3%; under setting [17], 25.6%; under setting [18], 22.4%; under setting [19], 22.4%; under setting [20], 21.1%; under setting [21], 18.9%. Besides, the viability, T/C by setting is: (second compound 3.16 µM, first compound 0.0316 µM) 28.9%; (second compound 3.16 µM, first compound 0.1 µM) 19.3%; (second compound 3.16 µM, first compound 0.316 µM) 15.7%; (second compound 3.16 µM, first compound 1 µM) 16.6%; (second compound 3.16 µM, first compound 3.16 µM) 15%; (second compound 3.16 µM, first compound 10 µM) 15.7%. The viability, T/C (second compound 10 µM, first compound 0.0316 µM) was 15.2%; the viability, T/C (second compound 10 µM, first compound 0.1 µM) is 14.2%; the viability, T/C (second compound 10 µM, first compound 0.316 µM) is 14.5%; the viability, T/C (second compound 10 µM, first compound 1 µM) was 13.3%; the viability, T/C (second compound 10 µM, first compound 3.16 µM) was 12.1%; the viability, T/C (second compound 10 µM, first compound 10 µM) was 11.4%.

As a reminder, the viability, T/C is the ratio of treated to control. Broadly, the pIC50 is the negative decadic logarithm of the IC50, by convention in mol/L.
